Reference: patent US7799821B2, “Therapeutic compounds” (Allergan, Inc., priority 2004, dated 2010)
Like-named read-outs stand apart in the source and are kept apart here. Blank lines part the entries; values can stand above or below the molecule they belong to.

How the values were obtained:
hEP2/Gqs5 = biological target: T1, hEP2/Gqs5 (Homo sapiens, UniProt P43116); experiment: FLIPR calcium signal, hEP2; format: cell-based
T1 construct: expressed in transfected cells; host or cells: HEK-293(EBNA)
Protocol: (§1) HEK-293(EBNA) cells, stably expressing one type or subtype of recombinant human prostaglandin receptors (prostaglandin receptors expressed: hDP/Gqs5; hEP1; hEP2/Gqs5; hEP3A/Gqi5; hEP4/Gqs5; hFP; hIP; hTP), were cultured in 100 mm culture dishes in high-glucose DMEM medium containing 10% fetal bovine serum, 2 mM 1-glutamine, 250 μg/ml geneticin (G418) and 200 μg/ml hygromycin B as selection markers, and 100 units/ml penicillin G, 100 μg/ml streptomycin and 0.25 μg/ml amphotericin B. • (b) Calcium Signal Studies on the FLIPR™
(§2) Cells were seeded at a density of 5×10^4 cells per well in Biocoat® Poly-D-lysine-coated black-wall, clear-bottom 96-well plates (Becton-Dickinson) and allowed to attach overnight in an incubator at 37° C. Cells were then washed two times with HBSS-HEPES buffer (Hanks Balanced Salt Solution without bicarbonate and phenol red, 20 mM HEPES, pH 7.4) using a Denley Cellwash plate washer (Labsystems). After 45 minutes of dye-loading in the dark, using the calcium-sensitive dye Fluo-4 AM at a final concentration of 2 μM, plates were washed four times with HBSS-HEPES buffer to remove excess dye leaving 100 μl in each well. Plates were re-equilibrated to 37° C. for a few minutes.
(§3) Cells were excited with an Argon laser at 488 nm, and emission was measured through a 510-570 nm bandwidth emission filter (FLIPR™, Molecular Devices, Sunnyvale, Calif.). Drug solution was added in a 50 μl volume to each well to give the desired final concentration. The peak increase in fluorescence intensity was recorded for each well. On each plate, four wells each served as negative (HBSS-HEPES buffer) and positive controls (standard agonists: BW245C (hDP); PGE2 (hEP1; hEP2/Gqs5; hEP3A/Gqi5; hEP4/Gqs5); PGF2α (hFP); carbacyclin (hIP); U-46619 (hTP), depending on receptor). The peak fluorescence change in each drug-containing well was then expressed relative to the controls.
(§4) Compounds were tested in a high-throughput (HTS) or concentration-response (CoRe) format. In the HTS format, forty-four compounds per plate were examined in duplicates at a concentration of 10^−5 M. To generate concentration-response curves, four compounds per plate were tested in duplicates in a concentration range between 10^−5 and 10^−11 M. The duplicate values were averaged. In either, HTS or CoRe format each compound was tested on at least 3 separate plates using cells from different passages to give an n≧3.

hTP = biological target: T2, hTP (Homo sapiens, UniProt P21731); experiment: FLIPR calcium signal, hTP; format: cell-based
T2 construct: expressed in transfected cells; host or cells: HEK-293(EBNA)
T2 sequence (P21731 1-343): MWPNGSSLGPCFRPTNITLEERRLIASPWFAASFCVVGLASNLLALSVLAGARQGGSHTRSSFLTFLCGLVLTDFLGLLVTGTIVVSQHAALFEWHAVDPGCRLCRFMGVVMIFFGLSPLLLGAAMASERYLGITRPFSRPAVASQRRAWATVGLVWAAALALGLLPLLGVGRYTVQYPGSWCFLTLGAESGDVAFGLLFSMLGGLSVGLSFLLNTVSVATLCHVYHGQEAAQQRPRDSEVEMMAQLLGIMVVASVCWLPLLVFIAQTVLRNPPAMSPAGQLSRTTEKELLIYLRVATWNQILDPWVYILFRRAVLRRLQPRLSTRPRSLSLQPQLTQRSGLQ
Protocol: as §1, §2, §3, §4

hEP3A/Gqi5 = biological target: T3, hEP3A/Gqi5 (Homo sapiens, UniProt P43115); experiment: FLIPR calcium signal, hEP3A; format: cell-based; conditions: read-out: Other Receptors EC50 hEP3A
T3 construct: expressed in transfected cells; host or cells: HEK-293(EBNA)
T3 sequence (P43115 1-390): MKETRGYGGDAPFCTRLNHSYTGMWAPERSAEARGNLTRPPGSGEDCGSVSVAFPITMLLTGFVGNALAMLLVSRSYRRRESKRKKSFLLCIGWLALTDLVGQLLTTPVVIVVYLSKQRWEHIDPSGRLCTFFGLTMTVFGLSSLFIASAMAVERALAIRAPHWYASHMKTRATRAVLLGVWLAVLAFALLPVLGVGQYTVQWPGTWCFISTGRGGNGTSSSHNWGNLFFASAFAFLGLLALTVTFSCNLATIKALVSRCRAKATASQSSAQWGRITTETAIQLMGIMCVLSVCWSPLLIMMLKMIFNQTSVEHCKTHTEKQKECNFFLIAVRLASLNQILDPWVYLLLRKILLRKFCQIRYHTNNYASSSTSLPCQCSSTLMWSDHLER
Protocol: as §1, §2, §3, §4

hDP/Gqs5 = biological target: T4, hDP/Gqs5 (Homo sapiens, UniProt Q13258); experiment: FLIPR calcium signal, hDP; format: cell-based
T4 construct: expressed in transfected cells; host or cells: HEK-293(EBNA)
T4 sequence (Q13258 1-359): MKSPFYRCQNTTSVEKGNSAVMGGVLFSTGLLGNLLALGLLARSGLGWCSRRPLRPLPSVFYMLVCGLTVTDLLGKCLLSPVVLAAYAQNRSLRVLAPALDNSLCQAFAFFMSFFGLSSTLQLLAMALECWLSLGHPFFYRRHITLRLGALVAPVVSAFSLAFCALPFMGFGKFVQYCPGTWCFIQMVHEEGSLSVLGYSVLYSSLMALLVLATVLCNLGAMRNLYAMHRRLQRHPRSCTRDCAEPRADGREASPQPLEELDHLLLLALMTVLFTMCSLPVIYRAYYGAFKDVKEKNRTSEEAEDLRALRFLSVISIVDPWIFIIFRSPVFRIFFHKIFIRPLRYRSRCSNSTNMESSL
Protocol: as §1, §2, §3, §4

hEP4/Gqs5 = biological target: T5, hEP4/Gqs5 (Homo sapiens, UniProt P35408); experiment: FLIPR calcium signal, hEP4; format: cell-based; conditions: unit inferred; read-out: EP4 data flipr EC50
T5 construct: expressed in transfected cells; host or cells: HEK-293(EBNA)
Protocol: as §1, §2, §3, §4

[1] = biological target: T6, HEK-EBNA cells expressing a PG EP2 receptor subtype (Homo sapiens, UniProt P43116); experiment: cAMP assay, EP2; format: cell-based; conditions: unit inferred; read-out: EP2 data cAMP EC50
T6 construct: expressed in transfected cells; host or cells: HEK-EBNA
Protocol: A 384-well drug plate was prepared to contain 6 test compounds, PGE2 and cAMP in 16 serial dilutions in triplicate, using a Biomek station. HEK-EBNA cells expressing a target PG receptor subtype (EP2 or EP4) were suspended in a stimulation buffer (HBSS, 0.1% BSA, 0.5 mM IBMX and 5 mM HEPES, pH 7.4) in a density of 10^4 cells/5 μl. The reaction was initiated by mixing 5 μL drug dilutions with 5 μl of HEK-EBNA cells in a well, carried out for 30 min at room temperature, and followed by the addition of 5 μl anti-cAMP acceptor beads in the control buffer with Tween-20 (25 mM NaCl, 0.03% Tween-20, 5 mM HEPES, pH7.4). After 30 min in the dark at room temperature, the mixtures were incubated with 15 μl biotinylated-cAMP/strepavidin donor beads in Lysis/Detection buffer (0.1% BSA, 0.3% Tween-20 and 5 mM HEPES, pH7.4) for 45 min at the room temperature. Fluorescence changes were read using a Fusion-alpha HT microplate reader.

EP4 receptors = biological target: T7, EP4 receptors (Homo sapiens, UniProt P35408); experiment: Radioligand binding ([3H]PGE2), EP4; conditions: unit inferred; read-out: EP4 data KI
T7 construct: expressed in transfected cells; host or cells: HEK-293
Protocol: (§5) HEK-293 cells stably expressing the human or feline FP receptor, or EP1, EP2, or EP4 receptors were washed with TME buffer, scraped from the bottom of the flasks, and homogenized for 30 sec using a Brinkman PT 10/35 polytron. TME buffer was added to achieve a final 40 ml volume in the centrifuge tubes (the composition of TME is 100 mM TRIS base, 20 mM MgCl2, […]; 10N HCl is added to achieve a pH of 7.4).
(§6) The cell homogenate was centrifuged at 19000 r.p.m. for 20 min at 4° C. using a Beckman Ti-60 rotor. The resultant pellet was resuspended in TME buffer to give a final 1 mg/ml protein concentration, as determined by Biorad assay. Radioligand binding competition assays vs. [^3H-]17 —phenyl PGF2α (5 nM) were performed in a 100 μl volume for 60 min. Binding reactions were started by adding plasma membrane fraction. The reaction was terminated by the addition of 4 ml ice-cold TRIS-HCl buffer and rapid filtration through glass fiber GF/B filters using a Brandel cell harvester. The filters were washed 3 times with ice-cold buffer and oven dried for one hour.
(§7) [^3H-] PGE2 (specific activity 180 Ci mmol) was used as the radioligand for EP receptors. [^3H] 17-phenyl PGF2α was employed for FP receptor binding studies. Binding studies employing EP1, EP2, EP4 and FP receptors were performed in duplicate in at least three separate experiments. A 200 μl assay volume was used. Incubations were for 60 min at 25° C. and were terminated by the addition of 4 ml of ice-cold 50 mM TRIS-HCl, followed by rapid filtration through Whatman GF/B filters and three additional 4 ml washes in a cell harvester (Brandel). Competition studies were performed using a final concentration of 5 nM [^3H]—PGE2, or 5 nM [^3H] 17-phenyl PGF2α and non-specific binding determined with 10^−5M of unlabeled PGE2, or 17-phenyl PGF2α, according to receptor subtype studied.

human EP2 receptors = biological target: T8, human EP2 receptors (Homo sapiens, UniProt P43116); experiment: Competition radioligand binding ([3H]PGE2), EP2; conditions: unit inferred; read-out: EP2 data Ki
T8 construct: expressed in transfected cells; host or cells: HEK 293
Protocol: Competition binding experiments were performed in a medium containing Hank's balanced salt solution, […], membranes (˜60 μg protein) or 2×10^5 cells from HEK 293 cells stably expressing human EP2 receptors, [^3H]PGE2 (10 nM) and various concentrations of test compounds in a total volume of 300 μl. Reaction mixtures were incubated at 23° C. for 60 min, and were filtered over Whatman GF/B filters under vacuum. Filters were washed three times with 5 ml ice-cold buffer containing 50 mM Tris/HCl (pH 7.3). Non-specific binding was estimated in the presence of excess unlabeled PGE2 (10 μM). Binding data fitted to the binding model for a single class of binding sites, using nonlinear regression analysis. IC50 values thus obtained were converted to Ki using the equation of Ki=(IC50/(1+[L]/KD) where [L] represents PGE2 concentration (10 nM) and KD the dissociation constant for [^3H]PGE2 at human EP2 receptors (40 nM).
as §5, §6, §7

[2] = read-out: Other Receptors EC50 hDP
[3] = unit inferred, other columns of the table in nM, read-out: EP2 data flipr EC50
[4] = FLIPR Ca2+ signal, HEK-293(EBNA), read-out: FUNCTIONAL EC50 HTP

T1 sequence (P43116 whole entry): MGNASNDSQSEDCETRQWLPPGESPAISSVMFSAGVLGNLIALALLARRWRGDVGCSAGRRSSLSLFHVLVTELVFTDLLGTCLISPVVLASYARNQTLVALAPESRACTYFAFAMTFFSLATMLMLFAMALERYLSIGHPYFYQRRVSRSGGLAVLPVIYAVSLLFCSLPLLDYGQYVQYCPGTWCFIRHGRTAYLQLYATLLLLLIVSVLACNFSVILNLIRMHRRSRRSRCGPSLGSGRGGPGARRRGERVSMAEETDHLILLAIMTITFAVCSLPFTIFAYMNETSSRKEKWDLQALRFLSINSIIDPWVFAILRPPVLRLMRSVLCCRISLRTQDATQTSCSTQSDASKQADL
T8 sequence (P43116 whole entry): as above
T6 sequence (P43116 whole entry): as above
T7 sequence (P35408 whole entry): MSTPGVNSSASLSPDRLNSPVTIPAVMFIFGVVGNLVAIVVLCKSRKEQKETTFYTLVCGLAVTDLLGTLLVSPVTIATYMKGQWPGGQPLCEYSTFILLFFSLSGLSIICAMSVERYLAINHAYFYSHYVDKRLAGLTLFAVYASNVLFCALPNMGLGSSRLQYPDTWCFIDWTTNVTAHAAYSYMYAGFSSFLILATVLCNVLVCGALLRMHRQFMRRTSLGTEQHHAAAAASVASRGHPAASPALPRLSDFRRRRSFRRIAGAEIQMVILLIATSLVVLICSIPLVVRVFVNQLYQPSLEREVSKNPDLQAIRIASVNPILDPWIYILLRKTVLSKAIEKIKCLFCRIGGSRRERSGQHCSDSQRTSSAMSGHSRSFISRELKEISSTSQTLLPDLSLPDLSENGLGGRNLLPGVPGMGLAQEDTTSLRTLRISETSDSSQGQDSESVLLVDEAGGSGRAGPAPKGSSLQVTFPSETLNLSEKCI
T5 sequence (P35408 whole entry): as above

EC50 (hEP3A/Gqi5): 47 nM
EC50 (hDP/Gqs5; [2]): 105 nM
EC50 (hEP4/Gqs5): > 10000 nM
EC50 (hEP2/Gqs5; [3]): 30 nM
SMILES: CCCCCCC(O)c1ccc(N2C(=O)CC[C@@H]2CCCc2ccc(C(=O)O)s2)cc1 (some centres unmarked) [drawing 182]

EC50 [1]: 1.5 nM
Ki (EP4 receptors): > 10000 nM
EC50 (hDP/Gqs5; [2]): 5760 nM
Ki (human EP2 receptors): 190 nM
EC50 (hEP2/Gqs5; [3]): 20 nM
SMILES: CCCCCCC(O)c1ccc(N2C(=O)CC[C@@H]2COCc2ccc(C(=O)O)s2)cc1 (some centres unmarked) [drawing 169]

EC50 [1]: 1.5 nM
Ki (EP4 receptors): > 10000 nM
EC50 (hDP/Gqs5; [2]): 5760 nM
Ki (human EP2 receptors): 190 nM
EC50 (hEP2/Gqs5; [3]): 20 nM
SMILES: CCCCCCC(O)c1ccc(N2C(=O)CC[C@@H]2COCc2ccc(C(=O)O)s2)cc1 (some centres unmarked) [drawing 141]

EC50 (hEP3A/Gqi5): 47 nM
EC50 (hDP/Gqs5; [2]): 105 nM
EC50 (hEP4/Gqs5): > 10000 nM
EC50 (hEP2/Gqs5; [3]): 30 nM
SMILES: CCCCCCC(O)c1ccc(N2C(=O)CC[C@@H]2CCCc2ccc(C(=O)O)s2)cc1 (some centres unmarked) [drawing 154]

The next lines start with the molecule.

SMILES: O=C(O)CCCCCC[C@H]1C(=O)CC[C@@H]1c1ccc(C(O)C2CCCCC2)cc1 (some centres unmarked)
EC50 (hEP2/Gqs5; read-out: FUNCTIONAL Ca2+ EC50 HEP2): > 10000 nM
EC50 (hTP; read-out: FUNCTIONAL Ca2+ EC50 HTP): > 10000 nM

SMILES: CCCC1(C(O)c2ccc([C@H]3[C@H](O)CC(=O)[C@@H]3C/C=C\CCCC(=O)OC)cc2)CCC1 (some centres unmarked)
EC50 (hTP; [4]): > 10000 nM

SMILES: O=C(O)CCCCCC[C@H]1C(=O)C[C@@H](O)[C@@H]1c1ccc2c(c1)CCC2O (some centres unmarked)
EC50 (hTP; [4]): > 10000 nM

SMILES: CCCC1([C@@H](O)c2ccc([C@H]3CCC(=O)[C@@H]3C/C=C\CCCC(=O)O)cc2)CCC1 [drawing 191]
EC50 (hDP/Gqs5; read-out: FUNCTIONAL Ca2+ EC50 HDP): > 10000 nM
